“Also recorded” adds a separate entry of the source. Like-named read-outs stand apart in the source and are kept apart here. Ends that are not written are not given here.
Tests used:
hSK1 channel [1] = assay: Ca2+ activation of ramp currents, inside-out macropatches, homomeric hSK1; format: cell-based, human
Experimental: (§1) TsA201 cells were maintained in culture at 37°C and 5% CO2, being grown in culture flasks with Dulbecco's Modified Eagle Medium (DMEM) supplemented with foetal bovine serum (10%) and penicillin and streptomycin (1%). Cells were passaged at ~80% confluence. The cDNA of KCa channel subunits and one encoding expression of enhanced green fluorescent protein (eGFP) (using pcDNA3.1 or equivalent vectors) were transfected into tsA201 cells using polyethylenimine (PEI) (Merck/Sigma, UK) at a concentration of 0.2 mg/mL (Higham et al., [2019]). Cells were used 48 h after transfection. All mutations were carried out using QuikChange II XL (Stratagene).
(§2) Sensitivity of expressed channels to Ca^2+ was assessed using inside‐out macropatches excised from eGFP‐positive cells, using electrodes of resistance 1–3 MΩ. A range of free Ca^2+ concentrations was used, from 30 nM to 3 μM in half log10 increments. We used external solution to bath inside‐out patches, with the free Ca^2+ concentration calculated to maintain free Mg^2+ at 1 mM. Solutions were designed using REACT, with pH adjusted to 7.4 and osmolarity between 280 and 310 mOsm.

[2] = biological target: T1, heteromeric hSK1:hIKCa channel (Homo sapiens, UniProt O15554+Q92952); assay: Ca2+ activation of ramp currents, inside-out macropatches, heteromeric hSK1:hIKCa; format: cell-based
T1 construct: expressed in transfected cells; host or cells: tsA201 cells
Experimental: as §1, §2

[3] = system: SK channels native to CA1 hippocampal neurons; set-up: method as in Hirschberg et al., 1999; details: ref Hirschberg et al., 1999; read-out: EC50 for activation of SK channels native to CA1 hippocampal neurons; cited from earlier work
hIKCa channel = biological target: T2, hIKCa channel (Homo sapiens, UniProt O15554); assay: Ca2+ activation of ramp currents, inside-out macropatches, homomeric hIKCa; format: cell-based
T2 construct: expressed in transfected cells; host or cells: tsA201 cells
Experimental: as §1, §2

hIKCa[H389E] channel = biological target: T3, hIKCa[H389E] channel (Homo sapiens, UniProt O15554, H389E); assay: Outside-out patch current inhibition, homomeric hIKCa[H389E]; format: cell-based; details: TRAM-34 10 μM
T3 construct: expressed in transfected cells; host or cells: tsA201 cells
Experimental: as §1
(§3) Outside‐out patches were excised from eGFP‐positive cells, pulled from thick‐walled (1.5 mm OD × 0.86 mm ID) borosilicate glass capillaries (Harvard Apparatus, UK), fire‐polished and filled with internal solution containing in mM: 97 K aspartate, 20 KCl, 1.5 Na2ATP, 10 EGTA, 9.65 CaCl2 (1 μM free Ca^2+), 10 HEPES Na, 2.5 MgCl2 (pH 7.4 and osmolarity between 280 and 310 mOsm). […] Free Ca^2+ concentrations were calculated using REACT (University of Strathclyde). […] Current was measured using an Axopatch 200A amplifier, low‐pass filtered (cut off 1 kHz, Bessel, Frequency Devices) and acquired at 10 kHz (Pulse, HEKA). […]

[4] = system: slow AHP of hippocampal neurons; details: ref King et al., 2015, Shah & Haylett, 2000, Church et al., 2019, Higham et al.; cited from earlier work
hIKCa (WT) channel = biological target: T4, hIKCa (WT) channel (Homo sapiens, UniProt O15554); assay: Outside-out patch current inhibition, homomeric wildtype hIKCa expressed in tsA201 cells; format: cell-based
T4 construct: expressed in transfected cells; host or cells: tsA201 cells
Experimental: as §1, §3

[5] = biological target: T1, heteromeric hSK1:hIKCa channel; details: ref Higham et al., 2019, Church et al.; cited from earlier work
[6] = biological target: hSK1[S348T + A371V]:hIKCa heteromeric channel (Homo sapiens, UniProt O15554+Q92952, A355V/S330T); assay: Outside-out patch current inhibition, heteromeric hSK1[S348T + A371V]:hIKCa; format: cell-based
Experimental: as §1, §3

[7] = biological target: hSK1:hIKCa[H389E] channels (Homo sapiens, UniProt O15554+Q92952, H389E); assay: Outside-out patch current inhibition, cells co-expressing hSK1 and hIKCa[H389E]; format: cell-based
Experimental: as §1
(§4) Outside‐out patches were excised from eGFP‐positive cells, pulled from thick‐walled (1.5 mm OD × 0.86 mm ID) borosilicate glass capillaries (Harvard Apparatus, UK), fire‐polished and filled with internal solution containing in mM: 97 K aspartate, 20 KCl, 1.5 Na2ATP, 10 EGTA, 9.65 CaCl2 (1 μM free Ca^2+), 10 HEPES Na, 2.5 MgCl2 (pH 7.4 and osmolarity between 280 and 310 mOsm). Cells were bathed in, and patches excised into, an external solution containing in mM: 97 K Aspartate, 30 KCl, 10 HEPES Na^+, 6.19 CaCl2 (1 μM free Ca^2+), 1.44 MgCl2 (pH 7.4, 280–310 mOsm). Free Ca^2+ concentrations were calculated using REACT (University of Strathclyde). […] Current was measured using an Axopatch 200A amplifier, low‐pass filtered (cut off 1 kHz, Bessel, Frequency Devices) and acquired at 10 kHz (Pulse, HEKA). All recordings were made at room temperature. Apamin (Sigma‐Aldrich, UK), 6,12,19,20,25,26‐hexahydro‐5,27:13,18:21,24‐trietheno‐11,7‐metheno‐7H‐dibenzo [b,n] […] UCL1684 was dissolved at a stock concentration of 100 μM in DMSO, and aliquots were stored at −20°C. Finally, apamin was dissolved in distilled water at a stock concentration of 100 μM, and aliquots were stored at −20°C. All compounds were defrosted on the day of recording, with aliquots only thawed once, and desired concentrations were prepared by dilution in external solution.
(§5) Biphasic concentration–inhibition relationships were fitted using the following equation: I/Icontrol=Amin+Afrac−Amin/1+10^LogIC50,a−X×nH,a +Amax−Amin/1+10^LogIC50,b−X×nH,b where A frac is current amplitude at the maximum of the high‐sensitivity component I frac /I cont , IC 50,a is the IC50 of the high‐sensitivity component, n H,a is the Hill coefficient of the high‐sensitivity component, IC 50,b is the IC50 of the low‐sensitivity component, and n H,b is the Hill coefficient of the low‐sensitivity component. […] Statistical significance was determined using appropriate tests that are stated in the figure legend.

hSK1 channel [8] = system: hSK1 channel; set-up: method as in Higham et al., 2019; details: ref Higham et al., 2019; cited from earlier work
[9] = system: hSK1[S348T + A371V] channel; assay: Outside-out patch current inhibition, homomeric pore mutant hSK1[S348T + A371V]; format: cell-based, human
Experimental: as §1, §3

[10] = biological target: T1, heteromeric hSK1:hIKCa channel; assay: Outside-out patch current inhibition, heteromeric wildtype hSK1:hIKCa expressed in tsA201 cells; format: cell-based; details: for extent of inhibition of heteromeric hSK1:hIKCa current: concentration-inhibition relationship
Experimental: as §1, §4, §5

hSK1 channel [11] = assay: Outside-out patch current inhibition, homomeric hSK1; format: cell-based, human
Experimental: as §1
Outside‐out patches were excised from eGFP‐positive cells, pulled from thick‐walled (1.5 mm OD × 0.86 mm ID) borosilicate glass capillaries (Harvard Apparatus, UK), fire‐polished and filled with internal solution containing in mM: 97 K aspartate, 20 KCl, 1.5 Na2ATP, 10 EGTA, 9.65 CaCl2 (1 μM free Ca^2+), 10 HEPES Na, 2.5 MgCl2 (pH 7.4 and osmolarity between 280 and 310 mOsm). Cells were bathed in, and patches excised into, an external solution containing in mM: 97 K Aspartate, 30 KCl, 10 HEPES Na^+, 6.19 CaCl2 (1 μM free Ca^2+), 1.44 MgCl2 (pH 7.4, 280–310 mOsm). Free Ca^2+ concentrations were calculated using REACT (University of Strathclyde). […] Current was measured using an Axopatch 200A amplifier, low‐pass filtered (cut off 1 kHz, Bessel, Frequency Devices) and acquired at 10 kHz (Pulse, HEKA). […]
as §5

[12] = system: hSK1:hIKCa[H389E] channels; assay: Outside-out patch current inhibition, cells co-expressing hSK1 and hIKCa[H389E]; format: cell-based, human; details: biphasic fit, hSK1:hIKCa[H389E]-mediated current
Experimental: as §1, §4, §5

[13] = concentration-inhibition relationship

Chain of hSK1:hIKCa[H389E] channels (Homo sapiens, UniProt O15554+Q92952, H389E) (O15554 whole entry H389E): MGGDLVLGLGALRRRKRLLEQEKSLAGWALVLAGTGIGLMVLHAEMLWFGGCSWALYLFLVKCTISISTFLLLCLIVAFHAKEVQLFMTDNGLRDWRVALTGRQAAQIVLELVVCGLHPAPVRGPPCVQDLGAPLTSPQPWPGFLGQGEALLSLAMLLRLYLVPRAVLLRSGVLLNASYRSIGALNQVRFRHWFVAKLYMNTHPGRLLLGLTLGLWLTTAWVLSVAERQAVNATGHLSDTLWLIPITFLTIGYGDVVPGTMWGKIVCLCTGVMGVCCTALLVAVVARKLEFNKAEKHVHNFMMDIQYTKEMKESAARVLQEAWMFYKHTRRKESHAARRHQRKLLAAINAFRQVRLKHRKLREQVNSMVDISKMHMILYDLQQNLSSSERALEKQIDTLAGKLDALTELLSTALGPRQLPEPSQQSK
Chain of hSK1:hIKCa[H389E] channels (Homo sapiens, UniProt O15554+Q92952, H389E) (Q92952 whole entry): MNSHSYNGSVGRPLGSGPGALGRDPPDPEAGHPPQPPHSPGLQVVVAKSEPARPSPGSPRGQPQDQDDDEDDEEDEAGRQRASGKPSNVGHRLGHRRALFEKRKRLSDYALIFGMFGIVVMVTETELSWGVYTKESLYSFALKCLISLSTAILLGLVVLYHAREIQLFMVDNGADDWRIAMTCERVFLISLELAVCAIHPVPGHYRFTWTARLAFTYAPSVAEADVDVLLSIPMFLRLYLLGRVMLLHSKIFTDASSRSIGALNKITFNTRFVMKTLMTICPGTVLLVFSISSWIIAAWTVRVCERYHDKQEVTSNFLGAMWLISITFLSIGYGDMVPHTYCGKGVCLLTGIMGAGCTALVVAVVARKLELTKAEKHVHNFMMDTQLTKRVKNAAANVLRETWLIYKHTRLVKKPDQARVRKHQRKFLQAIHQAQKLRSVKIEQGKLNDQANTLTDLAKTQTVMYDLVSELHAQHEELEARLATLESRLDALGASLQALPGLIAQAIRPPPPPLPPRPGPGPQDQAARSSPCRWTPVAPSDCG
T1 sequence (O15554 whole entry): as the sequence (O15554 whole entry H389E) above, with E389H counted along it
T1 sequence (Q92952 other isoform, or with tags, fused parts or gaps): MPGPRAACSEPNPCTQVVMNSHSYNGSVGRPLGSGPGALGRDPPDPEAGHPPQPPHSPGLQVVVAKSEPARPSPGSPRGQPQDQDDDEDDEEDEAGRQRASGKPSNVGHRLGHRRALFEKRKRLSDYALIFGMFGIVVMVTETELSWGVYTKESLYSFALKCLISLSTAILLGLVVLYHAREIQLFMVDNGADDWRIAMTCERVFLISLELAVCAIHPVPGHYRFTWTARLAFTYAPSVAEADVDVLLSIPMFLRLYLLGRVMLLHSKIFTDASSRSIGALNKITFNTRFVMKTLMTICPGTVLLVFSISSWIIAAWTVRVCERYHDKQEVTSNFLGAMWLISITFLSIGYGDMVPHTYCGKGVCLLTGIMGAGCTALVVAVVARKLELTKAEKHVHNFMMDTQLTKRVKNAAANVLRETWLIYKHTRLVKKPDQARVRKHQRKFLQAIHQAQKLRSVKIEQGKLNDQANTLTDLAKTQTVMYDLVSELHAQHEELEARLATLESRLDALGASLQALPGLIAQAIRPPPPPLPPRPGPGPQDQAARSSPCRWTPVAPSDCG
T2 sequence (O15554 whole entry): as the sequence (O15554 whole entry H389E) above, with E389H counted along it
Chain of hSK1[S348T + A371V]:hIKCa heteromeric channel (O15554 whole entry): as the sequence (O15554 whole entry H389E) above, with E389H counted along it
Chain of hSK1[S348T + A371V]:hIKCa heteromeric channel (Q92952 whole entry S330T/A355V): as the sequence (Q92952 whole entry) above, with S330T, A355V counted along it
T4 sequence (O15554 whole entry): as the sequence (O15554 whole entry H389E) above, with E389H counted along it
T3 sequence (O15554 whole entry H389E): as the sequence (O15554 whole entry H389E) above

Molecule: [Ca+2] [Ca^2+]
- activity of homomeric hSK1 channels at 100 nM Ca2+ (hSK1 channel [1]; 100 nM Ca2+): inactive
- nH for activation of homomeric hSK1-mediated current (hSK1 channel [1]; inside-out patches): 5.26 ± 0.82
- EC50 (hSK1 channel [1]; inside-out patches, tsA201 cells, read-out: EC50 for activation of homomeric hSK1-mediated current): 531 ± 78 nM
- activity of heteromeric hSK1:hIKCa channels at 100 nM Ca2+ ([2]; 100 nM Ca2+): inactive
- nH for activation of heteromeric hSK1:hIKCa-mediated ramp currents ([2]; inside-out patches): 3.93 ± 0.29
- EC50 ([2]; inside-out patches, tsA201 cells, read-out: EC50 for activation of heteromeric hSK1:hIKCa-mediated ramp currents): 613 ± 27.6 nM
- EC50 [3]: 560 nM
- activity of homomeric hIKCa channels at 100 nM Ca2+ (hIKCa channel; 100 nM Ca2+): 10%
- nH for activation of homomeric hIKCa-mediated ramp currents (hIKCa channel; inside-out patches): 4.10 ± 0.57
- EC50 (hIKCa channel; inside-out patches, tsA201 cells, read-out: EC50 for activation of homomeric hIKCa-mediated ramp currents): 409 ± 15.3 nM

Molecule: Clc1ccccc1C(c1ccccc1)(c1ccccc1)n1cccn1 [TRAM‐34, 1‐[(2‐chlorophenyl)diphenylmethyl]‐1H‐pyrazole]
- block of hIKCa[H389E]-mediated current (hIKCa[H389E] channel): 83.7 ± 2.0%
- sensitivity of the slow AHP [4]: sensitive
- extent of inhibition of homomeric hIKCa-mediated current (hIKCa (WT) channel; [13]): fully inhibited
- inhibition at 10 µM (hIKCa (WT) channel; tsA201, TRAM-34 10 μM, read-out: inhibition of hIKCa (WT)-mediated current): 87 ± 2.6%
- sensitivity of hSK1:hIKCa channel current [5]: sensitive
- extent of inhibition of hSK1[S348T + A371V]:hIKCa current ([6]; TRAM-34 10 μM): fully sensitive
- extent of inhibition of hSK1:hIKCa[H389E] current [7, 13]: only partially inhibited
- effect on wildtype hSK1-mediated current (hSK1 channel [8]): insensitive; also recorded: does not affect
- extent of block of hSK1[S348T + A371V]-mediated current ([9]; TRAM-34 10 μM): fully blocked
- extent of inhibition of heteromeric hSK1:hIKCa current [10]: sub‐maximal inhibition

Molecule: [Br-].[Br-].c1cc2cc(c1)C[n+]1ccc(c3ccccc31)NCc1ccc(cc1)CNc1cc[n+](c3ccccc13)C2 [UCL1684, 6,12,19,20,25,26‐hexahydro‐5,27:13,18:21,24‐trietheno‐11,7‐metheno‐7H‐dibenzo [b,n] [1,5,12,16]tetraazacyclotricosine‐5,13‐diium dibromide]
- extent of inhibition of homomeric hSK1-mediated current (hSK1 channel [11]; [13]): maximally inhibited
- difference in sensitivity between homomeric hSK1-mediated and heteromeric hSK1:hIKCa-mediated current (hSK1 channel [11]; hSK1 versus hSK1:hIKCa): < 200 fold
- IC50 (hSK1 channel [11]; outside-out patches, tsA201 cells, maximal inhibition, read-out: IC50 for inhibition of homomeric hSK1-mediated current): 0.783 ± 0.38 nM
- maximal inhibition of hSK1:hIKCa[H389E]-mediated current ([7]; two component concentration-inhibition curve): 50.9 ± 12.5%
- nH(a) of the high-sensitivity component [12]: 0.910 ± 0.02
- nH(b) of the low-sensitivity component [12]: 0.930 ± 0.1
- IC50 ([12]; read-out: IC50(a) of the high-sensitivity component): 0.511 ± 0.0002 nM
- IC50 ([12]; read-out: IC50(b) of the low-sensitivity component): 301 ± 84.6 nM
- extent of inhibition of heteromeric hSK1:hIKCa current [10]: sub‐maximally inhibited
- IC50 ([10]; outside-out patches, tsA201 cells, 1 μM free Ca2+, sub-maximal inhibition, read-out: IC50 for inhibition of heteromeric hSK1:hIKCa (WT) current): 236 ± 82 nM

Molecule: apamin: SK channel inhibitor; negative allosteric inhibitor for SK1–3 channels (CNCKAPETALCARRCQQH; not fully specified (C-terminus, bridges); cysteine pairing not given here; UniProt P01500 28-45, looked up)
- sensitivity of the slow AHP [4]: insensitive
- sensitivity of hSK1:hIKCa channel current [5]: insensitive
- sensitivity of hSK1[S348T + A371V]:hIKCa current ([6]; apamin 100 nM): insensitive
- reduction of current amplitude, cells co-expressing hSK1 and hIKCa[H389E] ([7]; apamin 100 nM): 17.3 ± 1.8%
- extent of inhibition of hSK1[S348T + A371V] current ([9]; apamin 100 nM): completely inhibited
- effect on current from cells co-expressing wildtype hSK1 and hIKCa ([10]; apamin 100 nM): had no effect

Molecule: charybdotoxin
- sensitivity of the slow AHP [4]: sensitive
- sensitivity of hSK1:hIKCa channel current [5]: sensitive
